# Reference: patent US9169241B2, “Quinolinyloxyphenylsulfonamides” (Max-Planck-Gesellschaft Zur Forderung der Wissenschaften …, priority 2009, dated 2015)
# Like-named read-outs stand apart in the source and are kept apart here.
# Columns and labels:
# Format in all cases: cell-based
# HT29 = test: Cell vitality assay (ATP assay, CellTiter-Glo); conditions: Homo sapiens, HT-29, Table IIc
# Method in brief: (§1)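 ATP-based luminescence (CellTiter-Glo) after 72 h exposure of 1000 cells/well to seven compound concentrations from 0.195 to 12.5 μM. IC50 defined as concentration reducing ATP to 50% of DMSO control.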
# Aspc-1 = test: Cell vitality assay (ATP assay, CellTiter-Glo); conditions: Homo sapiens, ASPC1, Table IIb
# Method in brief: as §1
# A549 = test: Cell vitality assay (ATP assay, CellTiter-Glo); conditions: Homo sapiens, Table IIc
# Method in brief: as §1
# H460 = test: Cell vitality assay (ATP assay, CellTiter-Glo); conditions: Homo sapiens, NCI-H460, Table IIc
# Method in brief: as §1
# PC3 = test: Cell vitality assay (ATP assay, CellTiter-Glo); conditions: Homo sapiens, PC-3, Table IIb
# Method in brief: as §1
# Panc-1 = test: Cell vitality assay (ATP assay, CellTiter-Glo); conditions: Homo sapiens, Table IIb
# Method in brief: as §1
# MDA-MB435s = test: Cell vitality assay (ATP assay, CellTiter-Glo); conditions: Homo sapiens, MDA-MB-435S, Table IIc
# Method in brief: as §1
# DU145 = test: Cell vitality assay (ATP assay, CellTiter-Glo); conditions: Homo sapiens, DU-145, Table IIb
# Method in brief: as §1
# MiaPaca-2 = test: Cell vitality assay (ATP assay, CellTiter-Glo); conditions: Homo sapiens, MIA PaCa-2, Table IIb
# Method in brief: as §1
# 786-0 = test: Cell vitality assay (ATP assay, CellTiter-Glo); conditions: Homo sapiens, Table IIb
# Method in brief: as §1
# U373 = test: Cell vitality assay (ATP assay, CellTiter-Glo); conditions: Homo sapiens, U373 MG, Table IIc
# Method in brief: as §1
# SK-MEL28 = test: Matrigel outgrowth assay/branching assay; conditions: IC100, SK-MEL28; Table Vb
# Method in brief: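 Matrigel 3 mg/ml, polymerized 1 h 37° C; 5000 cells/well + cmpd 3.125/1.56/0.78 μM or DMSO. Imaged 48/72/96 h, 5× objective. Positive = total branching block.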
# C8161 = test: Apoptosis assay (Cellomics, nucleus condensation); conditions: Homo sapiens, Table III, read-out: Apoptosis induction in C8161
# Method in brief: (§2)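 Apoptosis scored by automated microscopy of Hoechst-stained live nuclei, 24 and 48 h after treatment with 0.39–12.5 μM compound or DMSO.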
# U138 = test: Apoptosis assay (Cellomics, nucleus condensation); conditions: Table III, read-out: Apoptosis induction in U138
# Method in brief: as §2
# SF763 = test: Apoptosis assay (Cellomics, nucleus condensation); conditions: Table III, read-out: Apoptosis induction in SF763
# Method in brief: as §2
# viable cells in culture = test: Cell viability assay at 10 μM (CellTiter-Glo, Table VII); conditions: compound 10 μM, 72 h;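 also: graded A 0-20%; B 21-40%; C 41-60%; D over 60% viable cells relative to DMSO control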
# Method in brief: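 Cells were seeded at 1000 cells/well in 96-well plates in 100 μl culture medium and incubated for 72 h with 10 μM compound or a DMSO control. ATP content, which reflects metabolically active and therefore viable cells, was then determined by CellTiter-Glo luminescence (Promega) per the manufacturer's instructions and expressed relative to the DMSO control.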
# [1] = Homo sapiens, HCT-116, HCT116 def, read-out: percentage (%) of viable cells HCT 116def
# [2] = Homo sapiens, HCT-116, HCT116 wt, read-out: percentage (%) of viable cells HCT 116wt
# [3] = Homo sapiens, HT-29, HT29, read-out: percentage (%) of viable cells HT29
# [4] = Homo sapiens, NCI-H358, H358, read-out: percentage (%) of viable cells H358
# [5] = Homo sapiens, NCI-H1650, H1650, read-out: percentage (%) of viable cells H1650
# [6] = Homo sapiens, NCI-H1666, H1666, read-out: percentage (%) of viable cells H1666
# [7] = Homo sapiens, NCI-H1975, H1975, read-out: percentage (%) of viable cells H1975
# [8] = Homo sapiens, NCI-H1993, H1993, read-out: percentage (%) of viable cells H1993
# [9] = Homo sapiens, A549, read-out: percentage (%) of viable cells A549
# [10] = Homo sapiens, HCC827, read-out: percentage (%) of viable cells HCC827
# [11] = Homo sapiens, SW480, read-out: percentage (%) of viable cells SW480
# [12] = RKO, read-out: percentage (%) of viable cells RKO
Compound,IC50 (HT29) [µM],IC50 (Aspc-1) [µM],IC50 (A549) [µM],IC50 (H460) [µM],IC50 (PC3) [µM],IC50 (Panc-1) [µM],IC50 (MDA-MB435s) [µM],IC50 (DU145) [µM],IC50 (MiaPaca-2) [µM],IC50 (786-0) [µM],IC50 (C8161) [µM],IC50 (U373) [µM],Total branching inhibition in Matrigel SK-MEL28 (SK-MEL28),viability at 10 µM (viable cells in culture; [1]) [%],viability at 10 µM (viable cells in culture; [2]) [%],viability at 10 µM (viable cells in culture; [3]) [%],viability at 10 µM (viable cells in culture; [4]) [%],viability at 10 µM (viable cells in culture; [5]) [%],viability at 10 µM (viable cells in culture; [6]) [%],viability at 10 µM (viable cells in culture; [7]) [%],also measured
"COC(=O)c1sccc1S(=O)(=O)Nc1ccc(Oc2ccnc3cc(OCCCN4CCCC(C)C4)c(OC)cc23)c(F)c1 (centres unmarked) [Example 66, 3-(3-Fluoro-4-{6-methoxy-7-[3-(3-methyl-piperidin-1-yl)-propoxy]-quinolin-4-yloxy}-phenylsulfamoyl)-thiophene-2-carboxylic acid methyl ester]",≤ 12.5,≤ 12.5,≤ 12.5,≤ 12.5,≤ 12.5,≤ 12.5,≤ 12.5,≤ 12.5,≤ 12.5,≤ 12.5,–,≤ 12.5,++ (IC100≦12.5 μM),–,–,–,–,–,–,–,–
"COc1cc2c(Oc3ccc(NS(=O)(=O)c4cc(F)ccc4F)cc3F)ccnc2cc1OCCCN1CCCCC1 [Example 1, 2,5-Difluoro-N-{3-fluoro-4-[6-methoxy-7-(3-piperidin-1-yl-propoxy)-quinolin-4-yloxy]-phenyl}-benzenesulfonamide]",≤ 12.5,≤ 12.5,≤ 12.5,≤ 12.5,≤ 12.5,12.5 to 50,≤ 12.5,≤ 12.5,≤ 12.5,12.5 to 50,≤ 12.5,≤ 12.5,++ (IC100≦12.5 μM),0 to 20,0 to 20,21 to 40,0 to 20,41 to 60,41 to 60,21 to 40,IC50 (U138): ≤ 12.5 µM; IC50 (SF763): 12.5 to 50 µM; viability at 10 µM (viable cells in culture; [8]): 21 to 40%; viability at 10 µM (viable cells in culture; [9]): > 60%; viability at 10 µM (viable cells in culture; [10]): 21 to 40%; viability at 10 µM (viable cells in culture; [11]): 0 to 20%; viability at 10 µM (viable cells in culture; [12]): 0 to 20%
"COc1cc2c(Oc3ccc(NS(=O)(=O)c4cc(F)ccc4F)cc3F)ccnc2cc1OCCCN1CCN(C)CC1 [Example 12, 2,5-Difluoro-N-(3-fluoro-4-{6-methoxy-7-[3-(4-methyl-piperazin-1-yl)-propoxy]-quinolin-4-yloxy}-phenyl)-benzenesulfonamide]",≤ 12.5,≤ 12.5,≤ 12.5,≤ 12.5,≤ 12.5,12.5 to 50,≤ 12.5,≤ 12.5,≤ 12.5,≤ 12.5,12.5 to 50,≤ 12.5,++ (IC100≦12.5 μM),21 to 40,21 to 40,21 to 40,0 to 20,21 to 40,41 to 60,41 to 60,viability at 10 µM (viable cells in culture; [8]): 41 to 60%; viability at 10 µM (viable cells in culture; [9]): > 60%; viability at 10 µM (viable cells in culture; [10]): 21 to 40%; viability at 10 µM (viable cells in culture; [11]): 21 to 40%; viability at 10 µM (viable cells in culture; [12]): 0 to 20%
"COc1cc2c(Oc3ccc(NS(=O)(=O)c4ccc(F)c(Cl)c4)cc3F)ccnc2cc1OCCCN1CCCC(C)C1 (centres unmarked) [Example 57, 3-Chloro-4-fluoro-N-(3-fluoro-4-{6-methoxy-7-[3-(3-methyl-piperidin-1-yl)-propoxy]-quinolin-4-yloxy}-phenyl)-benzenesulfonamide]",–,–,–,–,–,–,–,–,–,–,≤ 12.5,–,–,21 to 40,> 60,0 to 20,21 to 40,41 to 60,41 to 60,0 to 20,IC50 (U138): ≤ 12.5 µM; IC50 (SF763): 12.5 to 50 µM; viability at 10 µM (viable cells in culture; [8]): 21 to 40%; viability at 10 µM (viable cells in culture; [9]): > 60%; viability at 10 µM (viable cells in culture; [10]): > 60%; viability at 10 µM (viable cells in culture; [11]): 0 to 20%; viability at 10 µM (viable cells in culture; [12]): 0 to 20%

# Further lines, with some results ahead:
IC50 (HT29) [µM],IC50 (Aspc-1) [µM],IC50 (A549) [µM],IC50 (H460) [µM],IC50 (PC3) [µM],IC50 (Panc-1) [µM],IC50 (MDA-MB435s) [µM],IC50 (DU145) [µM],IC50 (MiaPaca-2) [µM],IC50 (786-0) [µM],IC50 (C8161) [µM],Compound,IC50 (U373) [µM],Total branching inhibition in Matrigel SK-MEL28 (SK-MEL28),viability at 10 µM (viable cells in culture; [1]) [%],viability at 10 µM (viable cells in culture; [2]) [%],viability at 10 µM (viable cells in culture; [3]) [%],viability at 10 µM (viable cells in culture; [4]) [%],viability at 10 µM (viable cells in culture; [5]) [%],viability at 10 µM (viable cells in culture; [6]) [%],viability at 10 µM (viable cells in culture; [7]) [%],also measured
≤ 12.5,≤ 12.5,≤ 12.5,≤ 12.5,12.5 to 50,12.5 to 50,≤ 12.5,≤ 12.5,≤ 12.5,≤ 12.5,≤ 12.5,"COc1cc2c(Oc3ccc(NS(=O)(=O)c4ccccc4C(F)(F)F)cc3F)ccnc2cc1OCCCN1CCN(C)CC1 [Example 24, N-(3-Fluoro-4-{6-methoxy-7-[3-(4-methyl-piperazin-1-yl)-propoxy]-quinolin-4-yloxy}-phenyl)-2-trifluoromethyl-benzenesulfonamide]",≤ 12.5,++ (IC100≦12.5 μM),–,–,–,–,–,–,–,–
–,–,–,–,–,–,–,–,–,–,≤ 12.5,"COc1cc2c(Oc3ccc(NS(=O)(=O)c4ccccc4OC)cc3F)ccnc2cc1OCCCN1CCN(C)CC1 [Example 33, N-(3-Fluoro-4-{6-methoxy-7-[3-(4-methyl-piperazin-1-yl)-propoxy]-quinolin-4-yloxy}-phenyl)-2-methoxy-benzenesulfonamide]",–,–,21 to 40,0 to 20,0 to 20,21 to 40,> 60,21 to 40,21 to 40,IC50 (U138): ≤ 12.5 µM; IC50 (SF763): ≤ 12.5 µM; viability at 10 µM (viable cells in culture; [8]): 0 to 20%; viability at 10 µM (viable cells in culture; [9]): 41 to 60%; viability at 10 µM (viable cells in culture; [10]): 21 to 40%; viability at 10 µM (viable cells in culture; [11]): 0 to 20%; viability at 10 µM (viable cells in culture; [12]): 0 to 20%
